In US20200237759A1, “DOSAGE REGIME AND METHOD FOR TREATING PULMONARY ARTERIAL HYPERTENSION” (Altavant Sciences GmbH, priority 2019, published 2020):
Where “and” joins values, the source holds several entries; their conditions need not be identical. Equal entries are not always repeated.

Test: Part 2 MAD plasma pharmacokinetics, BID oral KAR5585 for 14 days
[1] = 100 mg (Cohort 2) to 400 mg (Cohort 4) BID fed, 4-fold increase in dose
[2] = 100 mg/dose BID Fasted, Cohort 1, Day 1 AM
[3] = 100 mg/dose BID Fasted, Cohort 1, Day 14
[4] = 100 mg/dose BID Fed, Cohort 2, Day 1 AM
[5] = 100 mg/dose BID Fed, Cohort 2, Day 1 PM
[6] = 100 mg/dose BID Fed, Cohort 2, Day 7 AM
[7] = 100 mg/dose BID Fed, Cohort 2, Day 7 PM
[8] = 100 mg/dose BID Fed, Cohort 2, Day 14
[9] = 200 mg/dose BID Fed, Cohort 3, Day 1 AM
[10] = 400 mg/dose BID Fed, Cohort 4, Day 1 AM
[11] = 400 mg/dose BID Fed, Cohort 4, Day 1 PM
[12] = 400 mg/dose BID Fed, Cohort 4, Day 7 AM
[13] = 400 mg/dose BID Fed, Cohort 4, Day 7 PM
[14] = 400 mg/dose BID Fed, Cohort 4, Day 14 (last block, /D fits 400 mg)
[15] = Day 7 AM, blank dose cell under 400/Fed Cohort 4, /D fits 200 mg Fed Cohort 3
[16] = Day 7 AM, blank dose cell under 400/Fed Cohort 4, likely 200 mg Fed Cohort 3
[17] = Day 7 PM (3rd 7/PM block), blank dose cell under 400/Fed Cohort 4, /D fits 200 mg Fed Cohort 3
[18] = Day 7 PM, blank dose cell under 400/Fed Cohort 4, /D fits 200 mg Fed Cohort 3
[19] = Day 14 (first Day 14 block), blank dose cell under 400/Fed Cohort 4, /D fits 200 mg Fed Cohort 3

Protocol: Food effect was to be evaluated in Part 1, Period 2.
Part 2 (MAD): BID doses (separated by approximately 12 hours on Days 1 to 13) and a single AM dose on Day 14. One or more of the MAD Cohort could have been dosed once daily (QD).
Pharmacokinetic data were to be summarized descriptively.

CCOC(=O)[C@@H]1CC2(CCN(c3cc(O[C@H](c4ccc(Cl)cc4-c4ccccc4)C(F)(F)F)nc(N)n3)CC2)CN1 [KAR5585, (S)-ethyl 8-(2-amino-6-((R)-1-(5-chloro-[1,1′-biphenyl]-2-yl)-2,2,2-trifluoroethoxy)pyrimidin-4-yl)-2,8-diazaspiro[4.5]decane-3-carboxylate]
increase in mean AUC0-12, Day 1 [1]: 5.1 fold | increase in mean AUC0-12, Day 14 [1]: 3.1 fold | increase in mean AUC0-24, Day 1 [1]: 3.6 fold | increase in mean AUC0-24, Day 14 [1]: 3.6 fold and 3.63 fold | increase in mean Cmax, Day 1 [1]: 4.4 fold | increase in mean Cmax, Day 14 [1]: ~3.0 fold | time to peak plasma concentrations (range), Day 1 (100 mg KAR5585 BID, Part 2 Cohort 1 (fasted state)): 0.75 to 2.0 h | VZ/F, Day 14 (100 mg KAR5585 BID, fed): 3520 L | mean VZ/F, Day 1 (100 mg KAR5585 BID, fed): 4100 L | AUC0-12 (Mean) [2]: 0.0628 µg·h/mL | Cmax (Mean) [2]: 0.0167 µg/mL | Vz/F (Mean) [2]: 4900 L | tmax (Median) [2]: 1.5 h | AUC0-24 (Mean) [3]: 0.0998 µg·h/mL | C24 (Geo. Mean) [3]: BLQ | C24 (Mean) [3]: BLQ | Cmax (Mean) [3]: 0.0213 µg/mL | Vz/F (Geo. Mean) [3]: 4230 L | Vz/F (Mean) [3]: 4420 L | t1/2 (Mean) [3]: 2.49 h | tmax (Median) [3]: 1.0 h | AUC0-12 (Geo. Mean) [4]: 0.0512 µg·h/mL | AUC0-12 (Mean) [4]: 0.0555 µg·h/mL | AUC0-∞ (Geo. Mean) [4]: 0.0517 µg·h/mL | AUC0-∞ (Mean) [4]: 0.0559 µg·h/mL | Cmax (Geo. Mean) [4]: 0.0177 µg/mL | Cmax (Mean) [4]: 0.0184 µg/mL | Vz/F (Geo. Mean) [4]: 3830 L | Vz/F (Mean) [4]: 4100 L | t1/2 (Geo. Mean) [4]: 1.37 h | tmax (Median) [4]: 0.75 h | AUC0-∞ (Geo. Mean) [5]: 0.152 µg·h/mL | Cmax (Geo. Mean) [5]: 0.0398 µg/mL | Cmax (Mean) [5]: 0.0441 µg/mL | Vz/F (Geo. Mean) [5]: 1730 L | Vz/F (Mean) [5]: 1820 L | t1/2 (Geo. Mean) [5]: 1.82 h | tmax (Median) [5]: 2.0 h | AUC0-12 (Geo. Mean) [6]: 0.127 µg·h/mL | AUC0-∞ (Geo. Mean) [6]: 0.137 µg·h/mL | Cmax (Geo. Mean) [6]: 0.0298 µg/mL | Cmax (Mean) [6]: 0.0313 µg/mL | Vz/F (Geo. Mean) [6]: 3210 L | Vz/F (Mean) [6]: 3360 L | t1/2 (Geo. Mean) [6]: 2.82 h | tmax (Median) [6]: 2.0 h | AUC0-12 (Geo. Mean) [7]: 0.142 µg·h/mL | AUC0-12 (Mean) [7]: 0.145 µg·h/mL | AUC0-24 (Geo. Mean) [7]: 0.278 µg·h/mL | AUC0-∞ (Geo. Mean) [7]: 0.168 µg·h/mL | Cmax (Mean) [7]: 0.0284 µg/mL | Vz/F (Geo. Mean) [7]: 3550 L | Vz/F (Mean) [7]: 3910 L | t1/2 (Mean) [7]: 3.80 h | tmax (Median) [7]: 4.0 h | AUC0-12 (Geo. Mean) [8]: 0.114 µg·h/mL | AUC0-24 (Geo. Mean) [8]: 0.121 µg·h/mL | AUC0-24 (Mean) [8]: 0.122 µg·h/mL | AUC0-∞ (Geo. Mean) [8]: 0.121 µg·h/mL | C24 (Geo. Mean) [8]: BLQ | C24 (Mean) [8]: BLQ | Cmax (Geo. Mean) [8]: 0.0285 µg/mL | Cmax (Mean) [8]: 0.03 µg/mL | Vz/F (Geo. Mean) [8]: 3330 L | Vz/F (Mean) [8]: 3520 L | t1/2 (Geo. Mean) [8]: 2.64 h | t1/2 (Mean) [8]: 2.73 h | tmax (Median) [8]: 1.8 h | VZ/F, Day 14 (200 mg KAR5585 BID, fed): 7010 L | mean VZ/F, Day 1 (200 mg KAR5585 BID, fed): 3220 L | Cmax (Mean) [9]: 0.0878 µg/mL | Vz/F (Geo. Mean) [9]: 3130 L | Vz/F (Mean) [9]: 3220 L | t1/2 (Geo. Mean) [9]: 2.81 h | t1/2 (Mean) [9]: 2.91 h | tmax (Median) [9]: 1.5 h | VZ/F, Day 14 (400 mg KAR5585 BID, fed): 10300 L | mean VZ/F, Day 1 (400 mg KAR5585 BID, fed): 6800 L | tmax Day 7 evening dose (400 mg KAR5585 BID, fed): 6 h | AUC0-12 (Geo. Mean) [10]: 0.0253 µg·h/mL | AUC0-12 (Mean) [10]: 0.00281 µg·h/mL | AUC0-∞ (Geo. Mean) [10]: 0.272 µg·h/mL | AUC0-∞ (Mean) [10]: 0.305 µg·h/mL | Cmax (Mean) [10]: 0.0818 µg/mL | Vz/F (Mean) [10]: 6800 L | t1/2 (Geo. Mean) [10]: 3.00 h | tmax (Median) [10]: 2.0 h | AUC0-∞ (Geo. Mean) [11]: 0.633 µg·h/mL | Cmax (Geo. Mean) [11]: 1.1 µg/mL | Vz/F (Geo. Mean) [11]: 3820 L | Vz/F (Mean) [11]: 4030 L | t1/2 (Geo. Mean) [11]: 4.18 h | t1/2 (Mean) [11]: 4.33 h | tmax (Median) [11]: 3.0 h | AUC0-12 (Geo. Mean) [12]: 0.473 µg·h/mL | AUC0-∞ (Geo. Mean) [12]: 0.577 µg·h/mL | Cmax (Geo. Mean) [12]: 0.0913 µg/mL | Vz/F (Geo. Mean) [12]: 5680 L | Vz/F (Mean) [12]: 6220 L | t1/2 (Mean) [12]: 4.90 h | tmax (Median) [12]: 2.0 h | AUC0-12 (Geo. Mean) [13]: 0.394 µg·h/mL | AUC0-∞ (Geo. Mean) [13]: 0.534 µg·h/mL | Cmax (Mean) [13]: 0.069 µg/mL | Vz/F (Geo. Mean) [13]: 6770 L | Vz/F (Mean) [13]: 6950 L | tmax (Median) [13]: 6.0 h | AUC0-12 (Geo. Mean) [14]: 0.359 µg·h/mL | AUC0-24 (Geo. Mean) [14]: 0.433 µg·h/mL | AUC0-24 (Mean) [14]: 0.444 µg·h/mL | AUC0-∞ (Geo. Mean) [14]: 0.465 µg·h/mL | Cmax (Geo. Mean) [14]: 0.0853 µg/mL | Cmax (Mean) [14]: 0.089 µg/mL | Vz/F (Geo. Mean) [14]: 9780 L | Vz/F (Mean) [14]: 10300 L | t1/2 (Geo. Mean) [14]: 6.08 h | t1/2 (Mean) [14]: 6.45 h | tmax (Median) [14]: 1.5 h | study day by which steady-state plasma levels were achieved (BID oral KAR5585 for 14 days): ≤ 7 days | tmax (Median) (Day 7 AM): 3.0 h | t1/2 (Geo. Mean) [15]: 4.21 h | t1/2 (Mean) [15]: 4.30 h | AUC0-12 (Geo. Mean) [16]: 0.217 µg·h/mL | AUC0-12 (Mean) [16]: 0.23 µg·h/mL | AUC0-∞ (Geo. Mean) [16]: 0.256 µg·h/mL | AUC0-∞ (Mean) [16]: 0.273 µg·h/mL | Vz/F (Geo. Mean) [16]: 5610 L | Vz/F (Mean) [16]: 5960 L | tmax (Median) (Day 7 PM): 6.0 h | AUC0-12 (Geo. Mean) [17]: 0.201 µg·h/mL | AUC0-24 (Geo. Mean) [17]: 0.414 µg·h/mL | AUC0-∞ (Geo. Mean) [17]: 0.289 µg·h/mL | AUC0-∞ (Mean) [17]: 0.29 µg·h/mL | Vz/F (Geo. Mean) [17]: 7000 L | Vz/F (Mean) [17]: 8710 L | AUC0-12 (Geo. Mean) [18]: 0.333 µg·h/mL | AUC0-24 (Geo. Mean) [18]: 0.583 µg·h/mL | AUC0-∞ (Geo. Mean) [18]: 0.406 µg·h/mL | Cmax (Mean) [18]: 0.0426 µg/mL | Vz/F (Geo. Mean) [18]: 3010 L | Vz/F (Mean) [18]: 3120 L | AUC0-24 (Geo. Mean) [19]: 0.199 µg·h/mL | AUC0-24 (Mean) [19]: 0.212 µg·h/mL | C24 (Geo. Mean) [19]: BLQ | C24 (Mean) [19]: BLQ | Cmax (Geo. Mean) [19]: 0.0435 µg/mL | Cmax (Mean) [19]: 0.0488 µg/mL | Vz/F (Geo. Mean) [19]: 6430 L | Vz/F (Mean) [19]: 7010 L
